# Paper PMC5986790, “Rational Discovery of (+) (S) Abscisic Acid as a Potential Antifungal Agent: a Repurposing Approach” (Scientific Reports, 2018)
# Tests used:
# yeast chorismate mutase [1] = biological target: T1, yeast chorismate mutase (Saccharomyces cerevisiae, UniProt P32178); assay: HPLC of chorismic acid and phenylpyruvate (prephenate converted by acid); assay type: biochemical; set-up: gene ARO7; native enzyme in crude sonicated yeast cell extract, not purified; homodimer (known biology); 256 residues; details: 1 mM chorismic acid; yeast sonicate; Tris-HCl pH 8; 30 °C; ABA 10-500 µM
# yeast chorismate mutase [2] = biological target: T1, yeast chorismate mutase; set-up: gene ARO7; details: 1 mM chorismic acid; yeast sonicate; Tris-HCl pH 8; 30 °C; tyrosine 10-500 µM; allosteric
# yeast chorismate mutase [3] = biological target: T1, yeast chorismate mutase; assay type: biochemical; set-up: gene ARO7; native enzyme in crude sonicated yeast cell extract, not purified; homodimer (known biology); 256 residues; details: 1 mM chorismic acid; yeast sonicate; Tris-HCl pH 8; 30 °C
# T1 sequence (P32178 whole entry): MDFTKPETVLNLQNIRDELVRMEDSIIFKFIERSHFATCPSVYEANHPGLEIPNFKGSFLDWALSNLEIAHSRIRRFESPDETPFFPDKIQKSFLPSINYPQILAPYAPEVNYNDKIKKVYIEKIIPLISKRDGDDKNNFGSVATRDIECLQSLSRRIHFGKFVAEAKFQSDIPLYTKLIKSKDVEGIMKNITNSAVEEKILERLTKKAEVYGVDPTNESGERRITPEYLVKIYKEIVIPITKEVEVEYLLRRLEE
smiles,measurement,setting,value
"CC1=CC(=O)CC(C)(C)[C@@]1(O)/C=C/C(C)=C\C(=O)O [(+)-Abscisic acid, 5-(1-hydroxy-2,6,6-trimethyl-4-oxo-2-cyclohexene-1-yl)-3-methyl-pentadienoic acid]","inhibitory concentration (range, not an IC50)",yeast chorismate mutase [1],200 to 300 µM
N[C@@H](Cc1ccc(O)cc1)C(=O)O [Tyrosine],optimal inhibitor concentration (not an IC50),yeast chorismate mutase [2],100 µM
C=C(O[C@@H]1C=C(C(=O)O)C=C[C@H]1O)C(=O)O [chorismic acid],HPLC of chorismic acid and phenylpyruvate (prephenate converted by acid),yeast chorismate mutase [3],yeast chorismate mutase catalysed the conversion of externally added chorismic acid to prephenic acid
